In US20070129384A1 (priority 2003, published 2007):
Read-outs that look alike come from different tables or passages of the source.

Tested on: Pyricularia oryzae
Assay type: in vivo
Settings: individual active compound, protective, rice leaves, evaluated 6 days after inoculation, untreated 89% infection

Structure (SMILES)	Efficacy in % of the untreated control (1 ppm in the spray liquor) [%]	Efficacy in % of the untreated control (16 ppm in the spray liquor) [%]	Efficacy in % of the untreated control (4 ppm in the spray liquor) [%]
CC1CCN(c2c(-c3c(F)cc(F)cc3F)c(Cl)nc3ncnn23)CC1 [I, 5-chloro-7-(4-methylpiperidin-1-yl)-6-(2,4,6-trifluorophenyl)-[1,2,4]tri-azolo[1,5-a]pyrimidine]	10	32	–
COC(=O)Nc1nc2ccccc2[nH]1 [II, methyl (1 H-benzoimidazol-2-yl)carbamate]	–	32	0
